Assay results reported in ChEMBL document CHEMBL1201862, “PubChem BioAssay data set” (2004).
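Compound exposure: 48 hours, 5 concentrations, 96-well plates. GI50 marks 50% less growth.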 Activity calls are given as the source filed them. No stated cut-off is given here; in the data, active = GI50 up to about 1.1 µM and inactive = higher.

Columns and labels:
Assay in all cases: growth of human tumour cells (NCI), 48 h
[1] = test system: 786-0
[2] = test system: A498
[3] = test system: CAKI-1
[4] = test system: CCRF-CEM
[5] = test system: DLD-1
[6] = test system: HCT-116
[7] = test system: HL-60
[8] = test system: HOP-62
[9] = test system: K562
[10] = test system: LOX IMVI
[11] = test system: M14
[12] = test system: NCI-H460
[13] = test system: NCI-H522
[14] = test system: OVCAR-4
[15] = test system: OVCAR-8
[16] = test system: SK-MEL-28
[17] = test system: SK-OV-3
[18] = test system: UO-31

| SMILES | GI50 [1] | GI50 [2] | GI50 [3] | GI50 [4] | GI50 [5] | GI50 [6] | GI50 [7] | GI50 [8] | GI50 [9] | GI50 [10] | GI50 [11] | GI50 [12] | GI50 [13] | GI50 [14] | GI50 [15] | GI50 [16] | GI50 [17] | GI50 [18] |
| --- | --- | --- | --- | --- | --- | --- | --- | --- | --- | --- | --- | --- | --- | --- | --- | --- | --- | --- |
| Cc1ccc(S(=O)(=O)C2=c3nc4ccccc4cc3=C3C(=O)c4ccccc4C(=O)C32)cc1 (centres undefined) | > 100 µM (inactive) | 35 µM (inactive) | > 100 µM (inactive) | > 100 µM (inactive) | > 100 µM (inactive) | > 100 µM (inactive) | > 100 µM (inactive) | > 100 µM (inactive) | > 100 µM (inactive) | > 100 µM (inactive) | > 100 µM (inactive) | > 100 µM (inactive) | > 100 µM (inactive) | > 100 µM (inactive) | > 100 µM (inactive) | > 100 µM (inactive) | 0.394 µM (active) | > 100 µM (inactive) |
| Cc1nc2c(sc(=S)n2-c2ccccc2)c2nc3ccccc3n12 | > 100 µM (inactive) | > 10 µM (inactive) | > 100 µM (inactive) | > 100 µM (inactive) | > 100 µM (inactive) | – | > 100 µM (inactive) | > 100 µM (inactive) | > 100 µM (inactive) | > 100 µM (inactive) | > 100 µM (inactive) | – | > 100 µM (inactive) | > 100 µM (inactive) | > 100 µM (inactive) | > 100 µM (inactive) | > 100 µM (inactive) | > 100 µM (inactive) |
| c1ccc(C2SCc3nc4ccccc4n32)cc1 (centres undefined) | > 100 µM (inactive) | 40.6 µM (inactive) | 42.7 µM (inactive) | 76.2 µM (inactive) | 49.5 µM (inactive) | 19.7 µM (inactive) | 15.6 µM (inactive) | 43.8 µM (inactive) | 32.8 µM (inactive) | 39.9 µM (inactive) | 84.5 µM (inactive) | 40.8 µM (inactive) | 18.9 µM (inactive) | 66.7 µM (inactive) | 65 µM (inactive) | 40.3 µM (inactive) | 91.8 µM (inactive) | 24.6 µM (inactive) |
| CCC(=O)CCC1=Nc2nnc(CCCCc3nnc4n3C(=O)C(CCC(=O)CC)=N4)n2C1=O | > 100 µM (inactive) | > 100 µM (inactive) | > 100 µM (inactive) | > 100 µM (inactive) | > 100 µM (inactive) | – | > 100 µM (inactive) | > 100 µM (inactive) | > 100 µM (inactive) | > 100 µM (inactive) | > 100 µM (inactive) | > 100 µM (inactive) | > 100 µM (inactive) | > 100 µM (inactive) | > 100 µM (inactive) | > 100 µM (inactive) | > 100 µM (inactive) | > 100 µM (inactive) |
| CC#COS(=O)(=O)c1ccc(C)cc1 | 44.4 µM (inactive) | > 10 µM (inactive) | > 100 µM (inactive) | 27.9 µM (inactive) | 30.8 µM (inactive) | 37.5 µM (inactive) | 26.4 µM (inactive) | > 100 µM (inactive) | 36.8 µM (inactive) | 52 µM (inactive) | 35.6 µM (inactive) | 70.6 µM (inactive) | 49.5 µM (inactive) | 58.5 µM (inactive) | > 100 µM (inactive) | – | 84.3 µM (inactive) | 57.1 µM (inactive) |
| C=CCC1(CN(C)C)CC/C(=C\c2ccc(OC)cc2)C1=O (centres undefined) | 65.8 µM (inactive) | 73.5 µM (inactive) | – | 34.8 µM (inactive) | 34.2 µM (inactive) | 61.5 µM (inactive) | 15 µM (inactive) | > 100 µM (inactive) | 32.9 µM (inactive) | > 100 µM (inactive) | 74.5 µM (inactive) | > 100 µM (inactive) | 25.8 µM (inactive) | 88.7 µM (inactive) | 69.8 µM (inactive) | > 100 µM (inactive) | – | 89.9 µM (inactive) |
| CC(=O)Oc1c(-c2ccccc2)[nH]c2cc([N+](=O)[O-])c(/C(Cl)=C/c3ccccc3)cc12 | 11.2 µM (inactive) | 2.88 µM (inactive) | 10.7 µM (inactive) | 3.61 µM (inactive) | 3.71 µM (inactive) | 3.91 µM (inactive) | 2.84 µM (inactive) | 25.9 µM (inactive) | 3.82 µM (inactive) | – | 7.73 µM (inactive) | 4.62 µM (inactive) | 4.86 µM (inactive) | 5.42 µM (inactive) | 4.3 µM (inactive) | 6.37 µM (inactive) | 26.9 µM (inactive) | 8 µM (inactive) |
